Test results: the kinase profiling compilation of Christmann-Franck et al. (2016)

What was measured:
FGFR1 (human) = FGFR1 (human) (UniProt P11362); assay: radiometric filter-binding kinase assay
RPS6KA1 KD1 KD2 (human) = RPS6KA1 KD1 KD2 (human) (UniProt Q15418); assay: radiometric filter-binding kinase assay
MAPK9 (human) = MAPK9 (human) (UniProt P45984); assay: radiometric filter-binding kinase assay
MAPK1 (human) = MAPK1 (human) (UniProt P28482); assay: radiometric filter-binding kinase assay
CAMKK2 (human) = CAMKK2 (human) (UniProt Q96RR4); assay: radiometric filter-binding kinase assay
PAK7 (human) = PAK7 (human) (UniProt Q9P286); assay: radiometric filter-binding kinase assay
BRSK2 (human) = BRSK2 (human) (UniProt Q8IWQ3); assay: radiometric filter-binding kinase assay
DYRK3 (human) = DYRK3 (human) (UniProt O43781); assay: radiometric filter-binding kinase assay
MARK3 (human) = MARK3 (human) (UniProt P27448); assay: radiometric filter-binding kinase assay
IKBKE (human) = IKBKE (human) (UniProt Q14164); assay: radiometric filter-binding kinase assay
NEK6 (human) = NEK6 (human) (UniProt Q9HC98); assay: radiometric filter-binding kinase assay
PHKG1 (human) = PHKG1 (human) (UniProt Q16816); assay: radiometric filter-binding kinase assay
DYRK1A (human) = DYRK1A (human) (UniProt Q13627); assay: radiometric filter-binding kinase assay
MAP2K1 (human) = MAP2K1 (human) (UniProt Q02750); assay: radiometric filter-binding kinase assay
PI4KB (human) = PI4KB (human) (UniProt Q9UBF8); assay: ADP detection assay-Luminescence
DGKZ (human) = DGKZ (human) (UniProt Q13574); assay: ADP detection assay-Luminescence
CHKB (human) = CHKB (human) (UniProt Q9Y259); assay: ADP detection assay-Luminescence
PIP4K2A (human) = PIP4K2A (human) (UniProt P48426); assay: ADP detection assay-Luminescence
PI4KA (human) = PI4KA (human) (UniProt P42356); assay: ADP detection assay-Luminescence
SPHK2 (human) = SPHK2 (human) (UniProt Q9NRA0); assay: ADP detection assay-Luminescence
PIK3C3 (human) = PIK3C3 (human) (UniProt Q8NEB9); assay: ADP detection assay-Luminescence
DGKG (human) = DGKG (human) (UniProt P49619); assay: ADP detection assay-Luminescence
SPHK1 (human) = SPHK1 (human) (UniProt Q9NYA1); assay: ADP detection assay-Luminescence
PIK3CD PIK3R1 (human) = PIK3CD PIK3R1 (human) (UniProt O00329+P27986); assay: ADP detection assay-Luminescence
DGKB (human) = DGKB (human) (UniProt Q9Y6T7); assay: ADP detection assay-Luminescence
PIK3CA PIK3R1 (human) = PIK3CA PIK3R1 (human) (UniProt P27986+P42336); assay: ADP detection assay-Luminescence
PIK3CB PIK3R1 (human) = PIK3CB PIK3R1 (human) (UniProt P27986+P42338); assay: ADP detection assay-Luminescence
CHKA (human) = CHKA (human) (UniProt P35790); assay: ADP detection assay-Luminescence
PIK3CG (human) = PIK3CG (human) (UniProt P48736); assay: ADP detection assay-Luminescence

SPHK1 (human), sequence (Q9NYA1 whole entry, looked up): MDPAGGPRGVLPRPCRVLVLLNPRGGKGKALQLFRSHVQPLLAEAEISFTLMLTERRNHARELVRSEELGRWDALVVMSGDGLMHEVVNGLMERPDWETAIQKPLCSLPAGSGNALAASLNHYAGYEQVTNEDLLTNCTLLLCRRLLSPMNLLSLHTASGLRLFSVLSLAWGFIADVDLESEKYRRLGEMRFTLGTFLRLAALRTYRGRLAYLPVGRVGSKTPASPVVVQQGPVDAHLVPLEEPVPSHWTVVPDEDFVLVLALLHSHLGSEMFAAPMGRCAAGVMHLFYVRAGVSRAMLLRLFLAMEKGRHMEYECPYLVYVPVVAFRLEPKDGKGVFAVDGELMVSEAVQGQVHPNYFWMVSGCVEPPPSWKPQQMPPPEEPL
MAPK9 (human), sequence (P45984 whole entry, looked up): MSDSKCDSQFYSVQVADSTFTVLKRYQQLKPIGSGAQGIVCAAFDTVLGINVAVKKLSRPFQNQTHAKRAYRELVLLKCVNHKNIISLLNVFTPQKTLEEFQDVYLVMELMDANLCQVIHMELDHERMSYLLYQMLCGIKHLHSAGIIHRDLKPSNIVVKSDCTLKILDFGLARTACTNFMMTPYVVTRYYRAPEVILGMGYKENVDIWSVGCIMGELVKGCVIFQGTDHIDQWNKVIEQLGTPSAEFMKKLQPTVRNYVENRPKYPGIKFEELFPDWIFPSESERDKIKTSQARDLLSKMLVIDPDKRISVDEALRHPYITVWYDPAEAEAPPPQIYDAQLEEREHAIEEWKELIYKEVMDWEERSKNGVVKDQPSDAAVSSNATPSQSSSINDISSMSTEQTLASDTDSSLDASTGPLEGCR
CHKA (human), sequence (P35790 whole entry, looked up): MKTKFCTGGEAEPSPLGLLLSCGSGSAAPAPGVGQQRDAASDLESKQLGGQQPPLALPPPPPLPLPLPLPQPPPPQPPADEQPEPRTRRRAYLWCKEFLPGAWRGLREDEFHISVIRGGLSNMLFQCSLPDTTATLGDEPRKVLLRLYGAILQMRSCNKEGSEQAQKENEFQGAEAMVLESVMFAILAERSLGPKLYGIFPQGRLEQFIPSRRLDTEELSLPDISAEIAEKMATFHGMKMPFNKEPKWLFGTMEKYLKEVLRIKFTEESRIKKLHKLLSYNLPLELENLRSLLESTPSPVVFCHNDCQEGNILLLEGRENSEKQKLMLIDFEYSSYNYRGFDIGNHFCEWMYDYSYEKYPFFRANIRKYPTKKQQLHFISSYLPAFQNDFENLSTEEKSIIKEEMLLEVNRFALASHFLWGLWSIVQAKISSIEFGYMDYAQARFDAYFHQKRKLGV
MAPK1 (human), sequence (P28482 whole entry, looked up): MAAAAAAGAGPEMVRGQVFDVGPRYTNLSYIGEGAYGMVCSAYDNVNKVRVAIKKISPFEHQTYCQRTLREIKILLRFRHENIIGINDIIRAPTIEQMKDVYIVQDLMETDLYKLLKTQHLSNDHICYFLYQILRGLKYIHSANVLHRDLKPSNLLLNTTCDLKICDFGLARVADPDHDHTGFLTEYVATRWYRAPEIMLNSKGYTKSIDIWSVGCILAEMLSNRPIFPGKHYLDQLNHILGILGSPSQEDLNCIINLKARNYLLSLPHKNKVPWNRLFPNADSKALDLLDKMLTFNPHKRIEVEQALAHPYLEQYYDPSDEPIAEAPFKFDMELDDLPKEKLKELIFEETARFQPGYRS
PIK3CD PIK3R1 (human), sequence (O00329 whole entry, looked up): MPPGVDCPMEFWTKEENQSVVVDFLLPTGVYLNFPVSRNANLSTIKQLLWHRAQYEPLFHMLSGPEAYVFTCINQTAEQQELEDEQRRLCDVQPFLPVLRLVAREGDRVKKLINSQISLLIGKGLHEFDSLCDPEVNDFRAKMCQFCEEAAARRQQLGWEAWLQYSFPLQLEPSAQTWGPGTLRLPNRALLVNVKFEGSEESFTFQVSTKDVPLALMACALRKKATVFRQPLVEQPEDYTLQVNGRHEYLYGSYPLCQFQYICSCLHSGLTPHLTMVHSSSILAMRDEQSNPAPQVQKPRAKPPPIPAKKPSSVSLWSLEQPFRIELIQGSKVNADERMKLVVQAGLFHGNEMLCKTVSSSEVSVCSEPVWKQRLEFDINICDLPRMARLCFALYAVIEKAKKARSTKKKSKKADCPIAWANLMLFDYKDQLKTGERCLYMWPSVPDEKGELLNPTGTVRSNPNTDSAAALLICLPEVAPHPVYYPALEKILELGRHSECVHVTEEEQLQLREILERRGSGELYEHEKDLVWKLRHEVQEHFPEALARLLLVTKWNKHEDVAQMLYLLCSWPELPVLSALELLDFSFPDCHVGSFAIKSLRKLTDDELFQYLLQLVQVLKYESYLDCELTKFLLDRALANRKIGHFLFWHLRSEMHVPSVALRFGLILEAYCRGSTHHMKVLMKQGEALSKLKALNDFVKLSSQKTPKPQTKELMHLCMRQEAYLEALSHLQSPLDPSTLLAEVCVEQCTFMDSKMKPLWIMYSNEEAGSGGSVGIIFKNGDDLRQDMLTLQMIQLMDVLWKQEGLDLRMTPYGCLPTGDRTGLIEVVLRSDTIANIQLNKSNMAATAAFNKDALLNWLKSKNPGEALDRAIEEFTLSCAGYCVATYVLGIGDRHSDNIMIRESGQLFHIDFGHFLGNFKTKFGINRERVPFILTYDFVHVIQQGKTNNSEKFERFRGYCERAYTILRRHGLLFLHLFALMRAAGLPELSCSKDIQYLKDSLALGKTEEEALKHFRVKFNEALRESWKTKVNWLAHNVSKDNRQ
PIK3CD PIK3R1 (human), sequence (P27986 whole entry, looked up): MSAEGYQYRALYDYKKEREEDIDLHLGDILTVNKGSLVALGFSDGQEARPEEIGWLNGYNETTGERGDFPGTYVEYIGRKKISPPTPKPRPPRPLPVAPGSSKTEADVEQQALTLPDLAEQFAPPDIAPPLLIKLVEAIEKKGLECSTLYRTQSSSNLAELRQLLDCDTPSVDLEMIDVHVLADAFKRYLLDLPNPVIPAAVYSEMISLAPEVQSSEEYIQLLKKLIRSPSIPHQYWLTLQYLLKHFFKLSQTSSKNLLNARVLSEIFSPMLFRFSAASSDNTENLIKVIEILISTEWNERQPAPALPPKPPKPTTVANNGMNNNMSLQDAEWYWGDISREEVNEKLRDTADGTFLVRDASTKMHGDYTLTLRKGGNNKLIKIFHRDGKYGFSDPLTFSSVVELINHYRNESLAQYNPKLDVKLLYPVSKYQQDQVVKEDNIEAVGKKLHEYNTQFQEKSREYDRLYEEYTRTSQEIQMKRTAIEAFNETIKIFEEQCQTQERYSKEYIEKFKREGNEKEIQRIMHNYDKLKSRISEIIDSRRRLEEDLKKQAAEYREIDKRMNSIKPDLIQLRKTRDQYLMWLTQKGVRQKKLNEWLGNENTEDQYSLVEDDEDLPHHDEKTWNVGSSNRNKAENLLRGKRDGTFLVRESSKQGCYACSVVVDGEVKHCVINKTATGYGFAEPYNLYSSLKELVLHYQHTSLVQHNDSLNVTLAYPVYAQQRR
CHKB (human), sequence (Q9Y259 whole entry, looked up): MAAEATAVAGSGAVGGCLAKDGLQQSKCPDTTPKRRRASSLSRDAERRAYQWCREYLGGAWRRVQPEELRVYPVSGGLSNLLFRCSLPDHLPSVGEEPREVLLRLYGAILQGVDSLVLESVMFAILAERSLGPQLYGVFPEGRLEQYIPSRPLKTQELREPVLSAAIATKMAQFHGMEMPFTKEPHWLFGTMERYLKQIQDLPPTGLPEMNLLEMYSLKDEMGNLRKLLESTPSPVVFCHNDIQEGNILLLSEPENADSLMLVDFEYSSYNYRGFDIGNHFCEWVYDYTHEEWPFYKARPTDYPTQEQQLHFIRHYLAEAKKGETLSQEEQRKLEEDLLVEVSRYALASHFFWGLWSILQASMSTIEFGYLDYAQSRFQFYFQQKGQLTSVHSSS
FGFR1 (human), sequence (P11362 whole entry, looked up): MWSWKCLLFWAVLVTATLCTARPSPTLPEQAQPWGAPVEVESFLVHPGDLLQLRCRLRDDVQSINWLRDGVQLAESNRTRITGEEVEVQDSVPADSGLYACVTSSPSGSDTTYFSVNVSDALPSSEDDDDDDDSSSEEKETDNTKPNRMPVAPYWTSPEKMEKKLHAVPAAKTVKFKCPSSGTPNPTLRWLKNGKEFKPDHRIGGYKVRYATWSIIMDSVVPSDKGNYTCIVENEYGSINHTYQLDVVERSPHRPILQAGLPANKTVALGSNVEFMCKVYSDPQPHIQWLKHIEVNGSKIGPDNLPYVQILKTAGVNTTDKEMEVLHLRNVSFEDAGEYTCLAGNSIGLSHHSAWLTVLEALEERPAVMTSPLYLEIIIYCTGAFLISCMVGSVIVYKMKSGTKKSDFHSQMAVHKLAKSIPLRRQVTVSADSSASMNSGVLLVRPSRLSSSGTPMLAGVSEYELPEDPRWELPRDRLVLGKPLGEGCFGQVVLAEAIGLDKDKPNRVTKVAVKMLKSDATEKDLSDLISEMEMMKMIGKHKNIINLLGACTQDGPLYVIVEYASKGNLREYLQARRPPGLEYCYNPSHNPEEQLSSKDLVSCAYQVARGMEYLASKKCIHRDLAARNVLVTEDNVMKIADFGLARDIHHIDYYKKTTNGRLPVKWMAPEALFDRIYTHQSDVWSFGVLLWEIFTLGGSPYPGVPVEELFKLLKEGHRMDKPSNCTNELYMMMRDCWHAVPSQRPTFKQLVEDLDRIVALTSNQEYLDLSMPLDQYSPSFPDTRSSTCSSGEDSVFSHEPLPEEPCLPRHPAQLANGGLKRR
PIP4K2A (human), sequence (P48426 whole entry, looked up): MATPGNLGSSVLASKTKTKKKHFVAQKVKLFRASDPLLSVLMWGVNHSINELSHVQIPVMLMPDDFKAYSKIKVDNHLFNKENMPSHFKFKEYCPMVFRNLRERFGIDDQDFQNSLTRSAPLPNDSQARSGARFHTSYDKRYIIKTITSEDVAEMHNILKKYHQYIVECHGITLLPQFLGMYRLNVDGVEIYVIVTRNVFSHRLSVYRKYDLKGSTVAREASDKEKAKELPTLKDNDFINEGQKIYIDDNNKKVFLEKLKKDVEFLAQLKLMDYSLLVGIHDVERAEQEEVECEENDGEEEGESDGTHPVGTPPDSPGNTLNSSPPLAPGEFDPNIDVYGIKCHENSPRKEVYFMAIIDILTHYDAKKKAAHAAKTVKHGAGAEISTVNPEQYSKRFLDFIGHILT

- residual activity (FGFR1 (human); compound 0.01 µM): 119%
- residual activity (FGFR1 (human); compound 0.1 µM): 119%
- residual activity (FGFR1 (human); compound 1.0 µM): 110%
- residual activity (RPS6KA1 KD1 KD2 (human); compound 0.01 µM): 123%
- residual activity (RPS6KA1 KD1 KD2 (human); compound 0.1 µM): 113%
- residual activity (RPS6KA1 KD1 KD2 (human); compound 1.0 µM): 94%
- residual activity (MAPK9 (human); compound 0.01 µM): 117%
- residual activity (MAPK9 (human); compound 0.1 µM): 126%
- residual activity (MAPK9 (human); compound 1.0 µM): 120%
- residual activity (MAPK1 (human); compound 0.01 µM): 117%
- residual activity (MAPK1 (human); compound 0.1 µM): 111%
- residual activity (MAPK1 (human); compound 1.0 µM): 99%
- residual activity (CAMKK2 (human); compound 0.01 µM): 112%
- residual activity (CAMKK2 (human); compound 0.1 µM): 123%
- residual activity (CAMKK2 (human); compound 1.0 µM): 127%
- residual activity (PAK7 (human); compound 0.01 µM): 97%
- residual activity (PAK7 (human); compound 0.1 µM): 101%
- residual activity (PAK7 (human); compound 1.0 µM): 94%
- residual activity (BRSK2 (human); compound 0.01 µM): 114%
- residual activity (BRSK2 (human); compound 0.1 µM): 110%
- residual activity (DYRK3 (human); compound 0.01 µM): 100%
- residual activity (DYRK3 (human); compound 0.1 µM): 103%
- residual activity (DYRK3 (human); compound 1.0 µM): 93%
- residual activity (MARK3 (human); compound 0.01 µM): 113%
- residual activity (MARK3 (human); compound 0.1 µM): 109%
- residual activity (MARK3 (human); compound 1.0 µM): 114%
- residual activity (IKBKE (human); compound 0.01 µM): 114%
- residual activity (IKBKE (human); compound 0.1 µM): 97%
- residual activity (IKBKE (human); compound 1.0 µM): 74%
- residual activity (NEK6 (human); compound 0.01 µM): 98%
- residual activity (NEK6 (human); compound 0.1 µM): 101%
- residual activity (NEK6 (human); compound 1.0 µM): 97%
- residual activity (PHKG1 (human); compound 0.01 µM): 106%
- residual activity (PHKG1 (human); compound 0.1 µM): 108%
- residual activity (PHKG1 (human); compound 1.0 µM): 103%
- residual activity (DYRK1A (human); compound 0.01 µM): 102%
- residual activity (DYRK1A (human); compound 0.1 µM): 107%
- residual activity (DYRK1A (human); compound 1.0 µM): 103%
- residual activity (MAP2K1 (human); compound 0.01 µM): 86%
- residual activity (MAP2K1 (human); compound 0.1 µM): 101%
- residual activity (MAP2K1 (human); compound 1.0 µM): 84%
- residual activity (PI4KB (human); compound 0.1 µM): 99%
- residual activity (PI4KB (human); compound 1.0 µM): 89%
- residual activity (PI4KB (human); compound 10.0 µM): 97%
- residual activity (DGKZ (human); compound 0.1 µM): 110%
- residual activity (DGKZ (human); compound 1.0 µM): 86%
- residual activity (DGKZ (human); compound 10.0 µM): 101%
- residual activity (CHKB (human); compound 0.1 µM): 113%
- residual activity (CHKB (human); compound 1.0 µM): 95%
- residual activity (CHKB (human); compound 10.0 µM): 87%
- residual activity (PIP4K2A (human); compound 0.1 µM): 102%
- residual activity (PIP4K2A (human); compound 1.0 µM): 97%
- residual activity (PIP4K2A (human); compound 10.0 µM): 86%
- residual activity (PI4KA (human); compound 0.1 µM): 100%
- residual activity (PI4KA (human); compound 1.0 µM): 94%
- residual activity (PI4KA (human); compound 10.0 µM): 103%
- residual activity (SPHK2 (human); compound 0.1 µM): 103%
- residual activity (SPHK2 (human); compound 1.0 µM): 100%
- residual activity (SPHK2 (human); compound 10.0 µM): 91%
- residual activity (PIK3C3 (human); compound 0.1 µM): 96%
- residual activity (PIK3C3 (human); compound 1.0 µM): 102%
- residual activity (PIK3C3 (human); compound 10.0 µM): 89%
- residual activity (DGKG (human); compound 0.1 µM): 99%
- residual activity (DGKG (human); compound 1.0 µM): 100%
- residual activity (DGKG (human); compound 10.0 µM): 101%
- residual activity (SPHK1 (human); compound 0.1 µM): 106%
- residual activity (SPHK1 (human); compound 1.0 µM): 102%
- residual activity (SPHK1 (human); compound 10.0 µM): 94%
- residual activity (PIK3CD PIK3R1 (human); compound 0.1 µM): 119%
- residual activity (PIK3CD PIK3R1 (human); compound 1.0 µM): 104%
- residual activity (PIK3CD PIK3R1 (human); compound 10.0 µM): 73%
- residual activity (DGKB (human); compound 0.1 µM): 99%
- residual activity (DGKB (human); compound 1.0 µM): 100%
- residual activity (DGKB (human); compound 10.0 µM): 93%
- residual activity (PIK3CA PIK3R1 (human); compound 0.1 µM): 106%
- residual activity (PIK3CA PIK3R1 (human); compound 1.0 µM): 105%
- residual activity (PIK3CA PIK3R1 (human); compound 10.0 µM): 104%
- residual activity (PIK3CB PIK3R1 (human); compound 0.1 µM): 102%
- residual activity (PIK3CB PIK3R1 (human); compound 1.0 µM): 108%
- residual activity (PIK3CB PIK3R1 (human); compound 10.0 µM): 97%
- residual activity (CHKA (human); compound 0.1 µM): 102%
- residual activity (CHKA (human); compound 1.0 µM): 94%
- residual activity (CHKA (human); compound 10.0 µM): 101%
- residual activity (PIK3CG (human); compound 0.1 µM): 98%
- residual activity (PIK3CG (human); compound 1.0 µM): 83%
- residual activity (PIK3CG (human); compound 10.0 µM): 70%
Structure (SMILES): CNc1nc(-c2ccc3c(N)n[nH]c3c2)cc(N2C[C@@H](C(=O)NC3CCCCC3)CC[C@H]2C)n1
